Source: patent publication US9676715B2, “Bis-indolic derivatives, a process for preparing the same and their uses as a drug” (UNIVERSITE JOSEPH FOURIER, priority 2011, dated 2017)
In brackets after ≈: the same amount, converted by molar mass.

Legend:
S. pneumoniae ATCC 6303 = test: MIC, microdilution method (9.1); format: cell-based, Streptococcus pneumoniae; details: Streptococcus pneumoniae, ATCC6303, 10% sheep blood, 5% CO2, 18 h, read-out: MIC
Outline: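 CLSI broth microdilution in Mueller Hinton broth, final inoculum 5×10^5 CFU/ml, with two-fold compound dilutions (0.50-128 mg/L final). Incubation at 37° C in ambient air, or 5% CO2 with 10% sheep blood for fastidious species.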

S. mitis CIP 103335 = test: MIC, microdilution method (9.1); format: cell-based, Streptococcus mitis; details: Streptococcus mitis, CIP103335, 18 h, read-out: MIC
Outline: (§1)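 MIC read from two-fold dilution series (0.50-128 mg/L final) in Mueller Hinton broth, following the CLSI M07-A8 microdilution procedure. Inoculum was 5×10^5 CFU/ml final, with incubation at 37° C. under ambient air.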

E. faecium CIP 54.32 = test: MIC, microdilution method (9.1); format: cell-based, Enterococcus faecium; details: Enterococcus faecium, CIP54, 18 h, read-out: MIC
Outline: as §1

E. faecalis ATCC 29212 = test: MIC, microdilution method (9.1); format: cell-based, Enterococcus faecalis; details: Enterococcus faecalis, ATCC29212, 18 h, read-out: MIC
Outline: as §1

[1] = test system: Staphylococcus aureus MRSA 252; test: MIC, Staphylococcus panel (9.2); format: cell-based; details: 18 h
Protocol: (§2) The microdilution method recommended by the Clinical and Laboratory Standard Institute [M07-A9, Vol. 32, N° 2] was used. The activity of bis-indolic compounds 3f and 4 was tested against 35 Staphylococcus bacterial strains corresponding to 12 different species,
(§3) Bacterial inocula were prepared in Mueller Hinton broth (MH2, BioMérieux, Marcy L'Etoile, France). They were dispensed in 96 well microtiter plates (5×10^5 CFU/ml of final inoculum, 192 μL per well). Indolic compounds diluted in pure DMSO (8 μL per well, concentrated 25 times) were added to the wells as to obtain two-fold serial concentrations (0.5-32 mg/L of final concentrations). The final concentration of DMSO was 4% in each well.
(§4) To avoid cross-contaminations in microtiter plates, one row was left blank between each strain tested. Microplates were incubated for 18 h at 37° C. in ambient air. Then MICs were read visually and, in case of visual reading difficulties, confirmed using a spectrophotometer at a wavelength of 630 nm (BioTek® EL808 Absorbance Microplate Reader). MICs corresponded to the minimum bis-indolic compound concentration that allowed complete visual growth inhibition of bacteria. Drug-free cultures served as growth controls.
(§5) Four Staphylococcus aureus strains were used. Two reference strains were provided by the French reference center for Staphylococcus spp. (Lyon, France), including one methicillin-susceptible (MSSA 476) and one methicillin-resistant (MRSA 252) S. aureus strains. The two remaining S. aureus strains were purchased from the CRBIP (Centre de Ressources Biologiques de l'Institut Pasteur): a vancomycin-intermediate strain (ATCC 106414) and a S. aureus strain (SA-1199B) resistant to fluoroquinolones due to overexpression of the NorA multidrug efflux pump.

[2] = test system: Staphylococcus aureus MSSA 476; test: MIC, Staphylococcus panel (9.2); format: cell-based; details: S. aureus MSSA 476, 4% DMSO, 18 h
Protocol: as §2, §3, §4, §5

[3] = test system: Staphylococcus aureus SA-1199B (NorA); test: MIC, Staphylococcus panel (9.2); format: cell-based; details: 18 h
Protocol: as §2, §3, §4, §5

[4] = test system: Staphylococcus auricularis (CHUG-Saur1); test: MIC, Staphylococcus panel (9.2); format: cell-based; details: S. auricularis CHUG-Saur1, 4% DMSO, 18 h
Protocol: as §2, §3, §4
(§6) Coagulase-negative Staphylococcus strains included three reference strains purchased from CRBIP: a methicillin-susceptible S. epidermidis strain (ATCC 12228), a methicillin-resistant S. epidermidis strain (ATCC 49461), and a methicillin-susceptible S. sciuri strain (ATCC 29061). We also used clinical strains belonging to the following coagulase-negative Staphylococcus species: S. auricularis (two strains), S. warneri (five strains), S. capitis (five strains), S. haemolyticus (four strains), S. hominis (seven strains), S. cohnii (two strains), and S. saprophyticus, S. caprae and S. simulans (one strain each). Identification of the clinical strains was obtained using VITEK® 2 System (Biomérieux). The specified strain numbers correspond to an internal number of the bacterial strain collection of our laboratory.

[5] = test system: Staphylococcus capitis (CHUG-Scap1); test: MIC, Staphylococcus panel (9.2); format: cell-based; details: S. capitis CHUG-Scap1, 4% DMSO, 18 h
Protocol: as §2, §3, §4, §6

[6] = test system: Staphylococcus epidermidis ATCC 12228; test: MIC, Staphylococcus panel (9.2); format: cell-based; details: ATCC12228, S. epidermidis ATCC 12228, 4% DMSO, 18 h
Protocol: as §2, §3, §4, §6

[7] = test system: Staphylococcus haemolyticus (CHUG-Shae1); test: MIC, Staphylococcus panel (9.2); format: cell-based; details: S. haemolyticus CHUG-Shae1, 4% DMSO, 18 h
Protocol: as §2, §3, §4, §6

[8] = test system: Staphylococcus hominis (CHUG-Shom1); test: MIC, Staphylococcus panel (9.2); format: cell-based; details: S. hominis CHUG-Shom1, 4% DMSO, 18 h
Protocol: as §2, §3, §4, §6

[9] = test system: Staphylococcus sciuri ATCC 29061; test: MIC, Staphylococcus panel (9.2); format: cell-based; details: Mammaliicoccus sciuri, ATCC29061; S. sciuri ATCC 29061; 4% DMSO, 18 h
Protocol: as §2, §3, §4, §6

S. aureus ATCC 25923 = test: Mutation frequency; format: cell-based, Staphylococcus aureus
Protocol: The mutation frequency is the number of individuals in a population with a particular mutation. In the present case, the mutation frequency was determined for a specific bacterial species and a specific indolic compound. Mueller Hinton agar plates containing various indolic compound concentrations, i.e., MIC×2, MIC×4, MIC×8, and MIC×16 were prepared. These plates were inoculated with various bacterial suspensions: 10^7, 10^8 or 10^9 UFC/mL. After 24 hours incubation of media at 37° C., CFU were numerated. The mutation frequency corresponded to the ratio of resistant mutants counted on a specific plate to the CFU count of the primary inoculum, expressed as a percentage.

[10] = test system: HCT116 (human colon tumor); test: In vitro cytotoxicity; format: cell-based; details: HCT-116, HCT116, from 100 μM to 0.005 μM in DMSO, duplicate

| Compound | MIC (S. pneumoniae ATCC 6303) [µg/mL] | MIC (S. mitis CIP 103335) [µg/mL] | MIC (E. faecium CIP 54.32) [µg/mL] | MIC (E. faecalis ATCC 29212) [µg/mL] | MIC [1] [µg/mL] | MIC [2] [µg/mL] | MIC [3] [µg/mL] | MIC [4] [µg/mL] | MIC [5] [µg/mL] | MIC [6] [µg/mL] | MIC [7] [µg/mL] | MIC [8] [µg/mL] | MIC [9] [µg/mL] | mutation frequency (S. aureus ATCC 25923) | IC50 ([10]; first value) [µM] | IC50 ([10]; second value) [µM] |
| --- | --- | --- | --- | --- | --- | --- | --- | --- | --- | --- | --- | --- | --- | --- | --- | --- |
| CC(C)(C)OC(=O)NCC(NC(=O)c1c[nH]c2ccc(Br)cc12)c1c[nH]c2ccc(Br)cc12 (stereo not shown) [Compound 3f, tert-Butyl(2-(5-bromo-1H-indol-3-yl)-2-(5-bromo-1H-indolyl-3-carboxamido)ethyl)carbamate] | 32 (≈ 55.5 µM) | 64 (≈ 111 µM) | > 128 | > 128 | 2 (≈ 3.47 µM) | 2 (≈ 3.47 µM) | 2 (≈ 3.47 µM) | 2 (≈ 3.47 µM) | 4 (≈ 6.94 µM) | 2 (≈ 3.47 µM) | 4 (≈ 6.94 µM) | 4 (≈ 6.94 µM) | 4 (≈ 6.94 µM) | 2×10^−9 | 5.24 | 5.05 |
| CC(NC(=O)c1c[nH]c2ccc(Br)cc12)c1c[nH]c2ccc(Br)cc12 (stereo not shown) [Compound 4, 5-Bromo-N-(1-(5-bromo-1H-indol-3-yl)ethyl)-1H-indole-3-carboxamide] | – | – | – | – | 2 (≈ 4.34 µM) | 1 (≈ 2.17 µM) | 2 (≈ 4.34 µM) | 1 (≈ 2.17 µM) | 2 (≈ 4.34 µM) | 1 (≈ 2.17 µM) | 2 (≈ 4.34 µM) | 1 (≈ 2.17 µM) | 2 (≈ 4.34 µM) | < 1.5×10^−10 | 6.43 | 10 |
| Cn1cc(C(=O)NC(CNC(=O)OC(C)(C)C)c2c[nH]c3ccc(Br)cc23)c2cc(Br)ccc21 (stereo not shown) [Compound 7, tert-Butyl (2-(5-bromo-1-methyl-1H-indole-3-carboxamido)-2-(5-bromo-1H-indol-3-yl)ethyl) carbamate] | > 128 | > 128 | > 128 | > 128 | – | – | – | – | – | – | – | – | – | – | 10.1 | 13.1 |
| NCCCCNC(=O)C(NC(=O)c1c[nH]c2ccc(Br)cc12)c1c[nH]c2ccc(Br)cc12 (stereo not shown) [Compound 16, N-(2-((4-Aminobutyl)amino)-1-(5-bromo-1H-indol-3-yl)-2-oxoethyl)-5-bromo-1H-indole-3-carboxamide] | > 128 | > 128 | > 128 | > 128 | – | – | – | – | – | – | – | – | – | – | 52.9 | 42.8 |
